Data from article PMC8453635, “Piperidine Azasugars Bearing Lipophilic Chains: Stereoselective Synthesis and Biological Activity as Inhibitors of Glucocerebrosidase (GCase)” (The Journal of Organic Chemistry, 2021).

Molecular target: T1, α-glucosidase (Homo sapiens, UniProt P10253)
T1 construct: α-glucosidase from lymphocytes isolated from healthy donors; from tissue; host or cells: lymphocytes from healthy donors' blood, sonicated homogenate
Assay: Human lysosomal glycosidase selectivity screening (lymphocyte homogenate)
Type: biochemical
Conditions: 1 mM, read-out: percentage of inhibition, α-Glu
Protocol: In order to avoid undesired inhibitory side effects of a potential new drug, it has to be selective for a given target. The selectivity of the newly synthesized compounds 14, 15, and 33·HCl toward GCase was then investigated, evaluating their inhibition at 1 mM concentration toward six other lysosomal glycosidases (namely, α-and β-mannosidases, α- and β-galactosidases, α-fucosidase, and α-glucosidase) in cell homogenates (leucocytes or lymphocytes) isolated from healthy donors. […] Indeed, only moderate inhibitory activity (ca. 50%) was found toward human β-galactosidase for both piperidines 14 and 15, while negligible inhibitory activity was detected in all other cases. […]
α-Mannosidase activity was measured in a flat-bottomed 96-well plate. […] The reaction was stopped by addition of sodium carbonate (200 μL; 0.5M, pH 10.7) containing Triton X -100 (0.0025 %), and the fluorescence 4 -methylumbelliferone release d by α-mannosidase activity was measured in SpectraMax M2 microplate reader ( λex=365 nm, λem=435 nm; Molecular Devices). […]
β-Mannosidase activity was measured in a flat -bottomed 96 -well plate. […] The reaction was stopped by addition of sodium carbonate (200 μL; 0.5M, pH 10.7) containing Triton X -100 (0.0025 %), and the fluorescence of 4 -methylumbelliferone released by β-mannosidase activity was meas ured in SpectraMax M2 microplate reader ( λex=365 nm, λem=435 nm; […]

SMILES: CCCCCCCC[C@H]1[C@@H](O)[C@H](O)[C@H](O)CN1CCCCCCCC [compound 14, (2S,3R,4R,5R)-1,2-Dioctylpiperidine-3,4,5-triol]
- inhibition at 1000 µM: 18%
